Results on 14 molecules are retold here after patent US8865623B2, “Herbicidally active cyclic diones and derivatives thereof, processes for their preparation, compositions, and method of controlling weeds” (Syngenta Limited, priority 2009, dated 2014).

Common to all, as to format: in vivo
Assay [1] deals with Alopecurus myosuroides (ALOMY). In words: Pre-emergence herbicidal activity, glasshouse pot test. To be noted: Alopecurus myosuroides, 312 h; Rate 250 g/ha; pre-emergence spray; evaluated after 13 days; read-out: Pre-emergence activity ALOMY (100=total damage to plant; 0=no damage to plant). An outline of the steps: (§1)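 Herbicide damage scored 0–100 at 13 d. Pre-emergence: spray 1 d after sowing; post-emergence: spray after 8 d growth. Formulation acetone/water 50:50, 0.5% Tween 20, aqueous spray.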

The test system of assay [2] is Avena fatua (AVEFA). The assay is described as above. To be noted: Avena fatua, 312 h; Rate 250 g/ha; pre-emergence spray; evaluated after 13 days; read-out: Pre-emergence activity AVEFA (100=total damage to plant; 0=no damage to plant). The method in brief: as §1
The subject of assay [3] is Echinochloa crus-galli (ECHCG). The assay is described as above. To be noted: Echinochloa crus-galli, 312 h; Rate 250 g/ha; pre-emergence spray; evaluated after 13 days; read-out: Pre-emergence activity ECHCG (100=total damage to plant; 0=no damage to plant). The method in brief: as §1
For assay [4], the system named is Lolium perenne (LOLPE). The assay is described as above. To be noted: Lolium perenne, 312 h; Rate 250 g/ha; pre-emergence spray; evaluated after 13 days; read-out: Pre-emergence activity LOLPE (100=total damage to plant; 0=no damage to plant). The method in brief: as §1
The test system of assay [5] is Alopecurus myosuroides (ALOMY). In words: Post-emergence herbicidal activity, glasshouse pot test. As to conditions: Alopecurus myosuroides, 312 h, rate 250 g/ha, evaluated after 13 days, glasshouse, read-out: Post-emergence activity ALOMY (100=total damage to plant; 0=no damage to plant). An outline of the steps: as §1
Assay [6] concerns Avena fatua (AVEFA). The assay is described as above. As to conditions: Avena fatua, 312 h, rate 250 g/ha, evaluated after 13 days, glasshouse, read-out: Post-emergence activity AVEFA (100=total damage to plant; 0=no damage to plant). An outline of the steps: as §1
The subject of assay [7] is Echinochloa crus-galli (ECHCG). Described as above. To be noted: Echinochloa crus-galli, 312 h, rate 250 g/ha, evaluated after 13 days, glasshouse, read-out: Post-emergence activity ECHCG (100=total damage to plant; 0=no damage to plant). The method in brief: as §1
Assay [8] concerns Lolium perenne (LOLPE). Described as above. To be noted: Lolium perenne, 312 h, rate 250 g/ha, evaluated after 13 days, glasshouse, read-out: Post-emergence activity LOLPE (100=total damage to plant; 0=no damage to plant). An outline of the steps:
as §1

SMILES strings stand for the structures.

`CCc1ccc(Oc2ccc3nc(Cl)cn3n2)cc1C1=C(O)C(C)(C)OC(C)(C)C1=O` [Example A-131]: the pest or weed control at 250 g/ha in assay [1] is 30%; in the assay on Avena fatua (AVEFA) [2], 40%; in assay [3], 90%; with Lolium perenne (LOLPE) [4], 60%; in assay [5] it was 70%; in the assay with Avena fatua (AVEFA) [6], 80%. Further, the pest or weed control at 250 g/ha was found to be 90% in assay [7] and 70% in the assay on Lolium perenne (LOLPE) [8].
As to `CCc1ccc(Oc2ncc(C)nc2C)cc1C1=C(O)C(C)(C)OC(C)(C)C1=O` [Example A-135], the pest or weed control at 250 g/ha in assay [1] was 10%; in the assay with Avena fatua (AVEFA) [2] it was 0%; in assay [3] it was 30%; with Lolium perenne (LOLPE) [4], 10%; in assay [5], 30%; in the assay on Avena fatua (AVEFA) [6], 20%. The figures for the pest or weed control at 250 g/ha (in assay [7]; with Lolium perenne (LOLPE) [8]) were 50% and 30%, respectively.
Consider `CCc1ccc(Oc2nc(F)c(Cl)cc2Cl)cc1C1=C(O)C(C)(C)OC(C)(C)C1=O` [Example A-140], for which the pest or weed control at 250 g/ha in assay [1] turned out to be 20%; in the assay with Avena fatua (AVEFA) [2] it was 0%; in assay [3], 50%; in the assay on Lolium perenne (LOLPE) [4], 50%; in assay [5], 70%; in the assay on Avena fatua (AVEFA) [6] it was 70%. In addition, the results for the pest or weed control at 250 g/ha (in assay [7]; in the assay on Lolium perenne (LOLPE) [8]) were 100% and 70%, respectively.
`CCc1ccc(Oc2nc(Cl)c(Cl)cc2Cl)cc1C1=C(O)C(C)(C)OC(C)(C)C1=O` [Example A-142]: the pest or weed control at 250 g/ha was found to be 20% in assay [1]; 0% in the assay with Avena fatua (AVEFA) [2]; 40% in assay [3]; 10% in the assay on Lolium perenne (LOLPE) [4]; 20% in assay [5]; 20% in the assay with Avena fatua (AVEFA) [6]. Also, the pest or weed control at 250 g/ha in assay [7] was 70%; in the assay with Lolium perenne (LOLPE) [8] it was 10%.
Take `CCc1ccc(Oc2ncc(Cl)cc2C(F)(F)F)cc1C1=C(O)C(C)(C)OC(C)(C)C1=O` [Example A-143]: the pest or weed control at 250 g/ha in assay [1] was 60%; in the assay with Avena fatua (AVEFA) [2], 40%; in assay [3], 100%; in the assay with Lolium perenne (LOLPE) [4] it was 70%; in assay [5], 100%; in the assay with Avena fatua (AVEFA) [6], 100%. Moreover, the pest or weed control at 250 g/ha (in assay [7]; in the assay with Lolium perenne (LOLPE) [8]) was 100% in each case.
With `CCc1ccc(Oc2cc(Cl)cc(Cl)n2)cc1C1=C(O)C(C)(C)OC(C)(C)C1=O` [Example A-145], the pest or weed control at 250 g/ha stood at 10% in assay [1]; 0% in the assay with Avena fatua (AVEFA) [2]; 20% in assay [3]; 10% in the assay on Lolium perenne (LOLPE) [4]; 20% in assay [5]; 20% in the assay with Avena fatua (AVEFA) [6]. Besides, the figures for the pest or weed control at 250 g/ha (in assay [7]; with Lolium perenne (LOLPE) [8]) were 70% and 20%, respectively.
Turning to `CCc1ccc(Oc2cc(C(F)(F)F)cc(Cl)n2)cc1C1=C(O)C(C)(C)OC(C)(C)C1=O` [Example A-146], the pest or weed control at 250 g/ha amounted to 10% in assay [1]; 0% in the assay with Avena fatua (AVEFA) [2]; 10% in assay [3]; 0% with Lolium perenne (LOLPE) [4]; 30% in assay [5]; 30% in the assay with Avena fatua (AVEFA) [6]. Further, the pest or weed control at 250 g/ha in assay [7] worked out at 70%; with Lolium perenne (LOLPE) [8], 20%.
For the molecule `CCc1ccc(Oc2ccc(Cl)cn2)cc1C1=C(O)C(C)(C)OC(C)(C)C1=O` [Example A-147], the pest or weed control at 250 g/ha in assay [1] is 50%; in the assay on Avena fatua (AVEFA) [2], 20%; in assay [3], 100%; in the assay with Lolium perenne (LOLPE) [4], 80%; in assay [5] it was 80%; with Avena fatua (AVEFA) [6] it was 70%. Moreover, the pest or weed control at 250 g/ha in assay [7] stood at 100%; in the assay with Lolium perenne (LOLPE) [8], 90%.
As to `CCc1ccc(Oc2ncc(C(F)(F)F)cc2C(F)(F)F)cc1C1=C(O)C(C)(C)OC(C)(C)C1=O` [Example A-148], the pest or weed control at 250 g/ha stood at 50% in assay [1]; 90% with Avena fatua (AVEFA) [2]; 90% in assay [3]; 100% in the assay on Lolium perenne (LOLPE) [4]; 90% in assay [5]; 100% with Avena fatua (AVEFA) [6]. Further, the pest or weed control at 250 g/ha was determined as 100% in assay [7] and 90% in the assay with Lolium perenne (LOLPE) [8].
Regarding `CCc1ccc(Oc2ccc([N+](=O)[O-])cn2)cc1C1=C(O)C(C)(C)OC(C)(C)C1=O` [Example A-149], the pest or weed control at 250 g/ha is 10% in assay [1]; 10% in the assay on Avena fatua (AVEFA) [2]; 60% in assay [3]; 20% with Lolium perenne (LOLPE) [4]; 10% in assay [5]; 30% in the assay on Avena fatua (AVEFA) [6]. The figures for the pest or weed control at 250 g/ha (in assay [7]; with Lolium perenne (LOLPE) [8]) were 50% and 30%, respectively.
As to `CCc1ccc(Oc2ccc(C#N)cn2)cc1C1=C(O)C(C)(C)OC(C)(C)C1=O` [Example A-150], the pest or weed control at 250 g/ha stood at 10% in assay [1]; 10% with Avena fatua (AVEFA) [2]; 80% in assay [3]; 70% in the assay with Lolium perenne (LOLPE) [4]; 60% in assay [5]; 70% in the assay on Avena fatua (AVEFA) [6]. The results for the pest or weed control at 250 g/ha (in assay [7]; with Lolium perenne (LOLPE) [8]) were 100% and 40%, respectively.
As for `CCc1ccc(Oc2nc(F)c(F)c(Cl)c2F)cc1C1=C(O)C(C)(C)OC(C)(C)C1=O` [Example A-151], the pest or weed control at 250 g/ha in assay [1] is 30%; in the assay on Avena fatua (AVEFA) [2], 20%; in assay [3], 70%; in the assay with Lolium perenne (LOLPE) [4], 50%; in assay [5], 20%; in the assay on Avena fatua (AVEFA) [6], 20%. For the same molecule, the figures for the pest or weed control at 250 g/ha (in assay [7]; in the assay with Lolium perenne (LOLPE) [8]) were 70% and 30%, respectively.
With `CCc1ccc(Oc2cc(C(F)(F)F)ccn2)cc1C1=C(O)C(C)(C)OC(C)(C)C1=O` [Example A-153], the pest or weed control at 250 g/ha in assay [1] turned out to be 50%; in the assay with Avena fatua (AVEFA) [2] it was 20%; in assay [3] it was 100%; with Lolium perenne (LOLPE) [4], 60%; in assay [5] it was 70%; in the assay with Avena fatua (AVEFA) [6] it was 80%. Besides, the pest or weed control at 250 g/ha amounted to 90% in assay [7] and 30% in the assay with Lolium perenne (LOLPE) [8].
Consider `CCc1ccc(Oc2ncccc2C(F)(F)F)cc1C1=C(O)C(C)(C)OC(C)(C)C1=O` [Example A-154], for which the pest or weed control at 250 g/ha in assay [1] stood at 0%; in the assay with Avena fatua (AVEFA) [2], 0%; in assay [3] it was 20%; in the assay on Lolium perenne (LOLPE) [4] it was 10%; in assay [5] it was 20%; with Avena fatua (AVEFA) [6], 10%. In addition, the pest or weed control at 250 g/ha in assay [7] was found to be 60%; with Lolium perenne (LOLPE) [8], 20%.
